# Assay results taken from patent US20230293518A1 (Edgewise Therapeutics, Inc., priority 2020, published 2023).
# pIC50: −log10 of the molar value.
# Target: skeletal myofibrils (myosin ATPase)
# Test: Skeletal Myofibril ATPase Assay
# Assay type: biochemical
# Conditions: Table 4C
# In short: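 IC50 came from four-parameter logistic fits, bottom constrained ≥0, of (Max−Min) A340 values normalised to 1% DMSO controls. Readings were taken kinetically over 45 min at 1.5-2 min intervals, with ADP from myofibril myosin ATPase coupled through PK-LDH to NADH oxidation. Buffer was pCa (PIPES/CaCl2/EGTA), pH 7.0.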
row,Compound,pIC50
1,"COc1ccc(-c2ccc(=O)n(CC(=O)NCc3cccc(F)c3)n2)cc1 [IIIb-32, N-(3-fluorobenzyl)-2-(3-(4-methoxyphenyl)-6-oxopyridazin-1(6H)-yl)acetamide]",4.00 to 5.00
2,"COc1ccc(-c2ccc(=O)n(CC(=O)Nc3ccc4c(c3)OCO4)n2)c(F)c1 [IIIb-33, N-(benzo[d][1,3]dioxol-5-yl)-2-(3-(2-fluoro-4-methoxyphenyl)-6-oxopyridazin-1(6H)-yl)acetamide]",4.00 to 5.00
3,"COc1ccc(CNC(=O)Cn2nc(-c3ccc(OC)cc3)ccc2=O)cc1 [IIIb-34, N-(4-methoxybenzyl)-2-(3-(4-methoxyphenyl)-6-oxopyridazin-1(6H)-yl)acetamide]",4.00 to 5.00
4,"COc1ccc(-c2ccc(=O)n(CC(=O)Nc3ccc(Cl)cc3Cl)n2)c(F)c1 [IIIb-35, N-(2,4-dichlorophenyl)-2-(3-(2-fluoro-4-methoxyphenyl)-6-oxopyridazin-1(6H)-yl)acetamide]",4.00 to 5.00
5,"COc1ccc(-c2ccc(=O)n(CC(=O)NC(C)CCc3ccccc3)n2)c(F)c1 (stereo not shown) [IIIb-36, 2-(3-(2-fluoro-4-methoxyphenyl)-6-oxopyridazin-1(6H)-yl)-N-(4-phenylbutan-2-yl)acetamide]",4.00 to 5.00
6,"COc1ccc(-c2ccc(=O)n(CC(=O)NCc3ccco3)n2)cc1 [IIIb-37, N-(furan-2-ylmethyl)-2-(3-(4-methoxyphenyl)-6-oxopyridazin-1(6H)-yl)acetamide]",4.00 to 5.00
7,"COc1ccc(-c2ccc(=O)n(CC(=O)NCc3ccccc3F)n2)cc1 [IIIb-38, N-(2-fluorobenzyl)-2-(3-(4-methoxyphenyl)-6-oxopyridazin-1(6H)-yl)acetamide]",< 4.00
8,"COc1ccc(-c2ccc(=O)n(CC(=O)NC[C@@H]3CC4C=CC3C4)n2)cc1 (stereo partly drawn) [IIIb-39, N-(((2R)-bicyclo[2.2.1]hept-5-en-2-yl)methyl)-2-(3-(4-methoxyphenyl)-6-oxopyridazin-1(6H)-yl)acetamide]",< 4.00
9,"COc1ccc(-c2ccc(=O)n(CC(=O)NCc3ccccc3Cl)n2)cc1OC [IIIb-40, N-(2-chlorobenzyl)-2-(3-(3,4-dimethoxyphenyl)-6-oxopyridazin-1(6H)-yl)acetamide]",< 4.00
10,"COc1ccc(-c2ccc(=O)n(CC(=O)NC3CCCCC3)n2)cc1 [IIIb-41, N-cyclohexyl-2-(3-(4-methoxyphenyl)-6-oxopyridazin-1(6H)-yl)acetamide]",< 4.00
11,"CCOc1ccc(-c2ccc(=O)n(CCNC(=O)CC3CCCC3)n2)cc1 [IIIb-43, 2-cyclopentyl-N-(2-(3-(4-ethoxyphenyl)-6-oxopyridazin-1(6H)-yl)ethyl)acetamide]",< 4.00
12,"CCc1ccc(-c2ccc(=O)n(CC(=O)Nc3ccc4c(c3)OCCO4)n2)cc1 [IIIb-44, N-(2,3-dihydrobenzo[b][1,4]dioxin-6-yl)-2-(3-(4-ethylphenyl)-6-oxopyridazin-1(6H)-yl)acetamide]",< 4.00
13,"COc1ccc(-c2ccc(=O)n(CC(=O)NC3CCCC3)n2)cc1OC [IIIb-45, N-cyclopentyl-2-(3-(3,4-dimethoxyphenyl)-6-oxopyridazin-1(6H)-yl)acetamide]",< 4.00
14,"COc1ccc(-c2ccc(=O)n(CC(=O)NCc3ccc(F)cc3)n2)c(F)c1 [IIIb-46, 2-(3-(2-fluoro-4-methoxyphenyl)-6-oxopyridazin-1(6H)-yl)-N-(4-fluorobenzyl)acetamide]",< 4.00
15,"COCCNC(=O)Cn1nc(-c2ccc(OC)cc2)ccc1=O [IIIb-47, N-(2-methoxyethyl)-2-(3-(4-methoxyphenyl)-6-oxopyridazin-1(6H)-yl)acetamide]",< 4.00
16,"COc1ccc(-c2ccc(=O)n(CC(=O)NCCC(C)C)n2)cc1 [IIIb-48, N-isopentyl-2-(3-(4-methoxyphenyl)-6-oxopyridazin-1(6H)-yl)acetamide]",< 4.00
17,"COc1ccc(-c2ccc(=O)n(CC(=O)NCc3ccc(OC)c(OC)c3)n2)cc1 [IIIb-49, N-(3,4-dimethoxybenzyl)-2-(3-(4-methoxyphenyl)-6-oxopyridazin-1(6H)-yl)acetamide]",< 4.00
18,"COc1ccc(-c2ccc(=O)n(CC(=O)NCc3ccc(F)cc3)n2)cc1 [IIIb-50, N-(4-fluorobenzyl)-2-(3-(4-methoxyphenyl)-6-oxopyridazin-1(6H)-yl)acetamide]",< 4.00
19,"COc1ccc(-c2ccc(=O)n(CC(=O)NCCc3ccc(OC)c(OC)c3)n2)cc1 [IIIb-51, N-(3,4-dimethoxyphenethyl)-2-(3-(4-methoxyphenyl)-6-oxopyridazin-1(6H)-yl)acetamide]",< 4.00
20,"COc1ccc(-c2ccc(=O)n(CC(=O)Nc3cccc(Cl)c3)n2)cc1 [IIIb-52, N-(3-chlorophenyl)-2-(3-(4-methoxyphenyl)-6-oxopyridazin-1(6H)-yl)acetamide]",< 4.00
21,"COc1ccc(-c2ccc(=O)n(CC(=O)NCc3ccco3)n2)cc1 [IIIb-53, N-(furan-2-ylmethyl)-2-(3-(4-methoxyphenyl)-6-oxopyridazin-1(6H)-yl)acetamide]",< 4.00
22,"COc1ccc(-c2ccc(=O)n(CC(=O)NCc3ccccc3)n2)c(F)c1 [IIIb-54, N-benzyl-2-(3-(2-fluoro-4-methoxyphenyl)-6-oxopyridazin-1(6H)-yl)acetamide]",< 4.00

# Second part, the compound after the results:
row,pIC50,Compound
1,> 5.00,"COc1ccc(-c2ccc(=O)n(CC(=O)NCCc3ccccc3)n2)c(F)c1 [IIIb-9, 2-(3-(2-fluoro-4-methoxyphenyl)-6-oxopyridazin-1(6H)-yl)-N-phenethylacetamide]"
2,> 5.00,"COc1ccc(-c2ccc(=O)n(CC(=O)Nc3cc(Cl)ccc3Cl)n2)cc1 [IIIb-10, N-(2,5-dichlorophenyl)-2-(3-(4-methoxyphenyl)-6-oxopyridazin-1(6H)-yl)acetamide]"
3,> 5.00,"COc1ccc(-c2ccc(=O)n(CC(=O)Nc3ccc(Cl)cc3Cl)n2)cc1 [IIIb-11, N-(2,4-dichlorophenyl)-2-(3-(4-methoxyphenyl)-6-oxopyridazin-1(6H)-yl)acetamide]"
4,> 5.00,"COc1ccc(-c2ccc(=O)n(CC(=O)Nc3cc(Cl)ccc3Cl)n2)c(F)c1 [IIIb-13, N-(2,5-dichlorophenyl)-2-(3-(2-fluoro-4-methoxyphenyl)-6-oxopyridazin-1(6H)-yl)acetamide]"
5,> 5.00,"COc1ccc(-c2ccc(=O)n(CC(=O)NCCC3=CCCCC3)n2)cc1 [IIIb-14, N-(2-(cyclohex-1-en-1-yl)ethyl)-2-(3-(4-methoxyphenyl)-6-oxopyridazin-1(6H)-yl)acetamide]"
6,> 5.00,"COc1ccc(-c2ccc(=O)n(CC(=O)Nc3ccc4c(c3)OCCO4)n2)c(F)c1 [IIIb-15, N-(2,3-dihydrobenzo[b][1,4]dioxin-6-yl)-2-(3-(2-fluoro-4-methoxyphenyl)-6-oxopyridazin-1(6H)-yl)acetamide]"
7,> 5.00,"COc1ccc(-c2ccc(=O)n(CC(=O)Nc3ccc4c(c3)OCCO4)n2)cc1 [IIIb-16, N-(2,3-dihydrobenzo[b][1,4]dioxin-6-yl)-2-(3-(4-methoxyphenyl)-6-oxopyridazin-1(6H)-yl)acetamide]"
8,4.00 to 5.00,"COc1ccc(-c2ccc(=O)n(CC(=O)NC(C)C)n2)cc1 [IIIb-18, N-isopropyl-2-(3-(4-methoxyphenyl)-6-oxopyridazin-1(6H)-yl)acetamide]"
9,4.00 to 5.00,"COc1ccc(-c2ccc(=O)n(CC(=O)NC(C)C)n2)c(F)c1 [IIIb-19, 2-(3-(2-fluoro-4-methoxyphenyl)-6-oxopyridazin-1(6H)-yl)-N-isopropylacetamide]"
10,4.00 to 5.00,"COc1ccc(-c2ccc(=O)n(CC(=O)NCc3ccccc3)n2)cc1 [IIIb-20, N-benzyl-2-(3-(4-methoxyphenyl)-6-oxopyridazin-1(6H)-yl)acetamide]"
11,4.00 to 5.00,COc1ccc(-c2ccc(=O)n(CC(=O)NCc3ccccc3OC)n2)cc1 [IIIb-21]
12,4.00 to 5.00,"COc1ccc(-c2ccc(=O)n(CC(=O)NC3CC3)n2)cc1 [IIIb-22, N-cyclopropyl-2-(3-(4-methoxyphenyl)-6-oxopyridazin-1(6H)-yl)acetamide]"
13,4.00 to 5.00,"COc1ccc(-c2ccc(=O)n(CC(=O)NC3CCCC3)n2)cc1 [IIIb-23, N-cyclopentyl-2-(3-(4-methoxyphenyl)-6-oxopyridazin-1(6H)-yl)acetamide]"
14,4.00 to 5.00,"O=C(Cn1nc(-c2ccc3c(c2)OCCCO3)ccc1=O)NC1CCCCCC1 [IIIb-24, N-cycloheptyl-2-(3-(3,4-dihydro-2H-benzo[b][1,4]dioxepin-7-yl)-6-oxopyridazin-1(6H)-yl)acetamide]"
15,4.00 to 5.00,"COc1ccc(-c2ccc(=O)n(CC(=O)Nc3cc(OC)ccc3OC)n2)cc1 [IIIb-25, N-(2,5-dimethoxyphenyl)-2-(3-(4-methoxyphenyl)-6-oxopyridazin-1(6H)-yl)acetamide]"
16,4.00 to 5.00,"C[C@@H](NC(=O)Cn1nc(-c2ccc3c(c2)OCCCO3)ccc1=O)c1ccc(F)cc1 [IIIb-26, (R)-2-(3-(3,4-dihydro-2H-benzo[b][1,4]dioxepin-7-yl)-6-oxopyridazin-1(6H)-yl)-N-(1-(4-fluorophenyl)ethyl)acetamide]"
17,4.00 to 5.00,"COc1ccc(-c2ccc(=O)n(CC(=O)Nc3ncccc3C)n2)cc1 [IIIb-27, 2-(3-(4-methoxyphenyl)-6-oxopyridazin-1(6H)-yl)-N-(3-methylpyridin-2-yl)acetamide]"
18,4.00 to 5.00,"COc1ccc(-c2ccc(=O)n(CC(=O)Nc3ccc4c(c3)OCO4)n2)cc1 [IIIb-28, N-(benzo[d][1,3]dioxol-5-yl)-2-(3-(4-methoxyphenyl)-6-oxopyridazin-1(6H)-yl)acetamide]"
19,4.00 to 5.00,"COc1ccc(-c2ccc(=O)n(CC(=O)NCC(C)C)n2)cc1 [IIIb-29, N-isobutyl-2-(3-(4-methoxyphenyl)-6-oxopyridazin-1(6H)-yl)acetamide]"
20,4.00 to 5.00,"COc1ccc(-c2ccc(=O)n(CC(=O)NC(C)CCc3ccccc3)n2)cc1 (stereo not shown) [IIIb-30, 2-(3-(4-methoxyphenyl)-6-oxopyridazin-1(6H)-yl)-N-(4-phenylbutan-2-yl)acetamide]"
21,4.00 to 5.00,"COc1ccc(-c2ccc(=O)n(CC(=O)NCc3ccc(Cl)cc3)n2)cc1 [IIIb-31, N-(4-chlorobenzyl)-2-(3-(4-methoxyphenyl)-6-oxopyridazin-1(6H)-yl)acetamide]"
